The record followed here is PubChem BioAssay (NCI).

Some test systems named below: ACHN renal; CCRF-CEM leukemia; COLO 205 colon; HOP-92 NSCLC; LOX IMVI melanoma; NCI-H460 lung; OVCAR-3 ovarian; SR leukemia; UACC-257 melanoma; UO-31 renal; HL-60(TB) leukemia.
Holding throughout (test): inhibition of tumour cell growth, NCI panel, 48 h

“And” between values parts separate entries of the source, which are not always exact repeats. Identical values can stand only once.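 Compound exposure: 48 hours, 5 concentrations, 96-well plates. GI50: concentration for 50% inhibition of growth. At the TGI there is no net growth.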

Consider `CC(C)=CCC/C(C)=C/CC/C(C)=C/[C@@H]1[C@@H](CO)[C@]1(C)CC/C=C(\C)CCC=C(C)C`, for which the TGI with ACHN renal is 31.5 µM; with CCRF-CEM leukemia, 45.2 µM; in the experiment on COLO 205 colon it was above 100 µM; in the experiment with HOP-92 NSCLC it was 38.2 µM; with LOX IMVI melanoma it was 23.8 µM; with NCI-H460 lung it was above 100 µM. Besides, the TGI was above 100 µM with OVCAR-3 ovarian, 55 µM in the experiment with SR leukemia, above 100 µM with UACC-257 melanoma and 34.3 µM in the experiment on UO-31 renal.
With `Cc1cc(N2CCOCC2)nc(N(CCCNc2ccnc3cc(Cl)ccc23)Cc2ccc3c(c2)OCO3)n1`, the GI50 was 0.355 µM in the experiment with CCRF-CEM leukemia; 1.56 µM in the experiment on HOP-92 NSCLC; 1.45 µM in the experiment with NCI-H460 lung; 0.253 µM in the experiment on OVCAR-3 ovarian; 0.186 µM with SR leukemia; 1.99 µM with UACC-257 melanoma. For the same molecule, the TGI was determined as 2.1 µM with CCRF-CEM leukemia; 3.98 µM with HOP-92 NSCLC; 2.99 µM in the experiment on NCI-H460 lung; 0.738 µM with OVCAR-3 ovarian; 0.593 µM with SR leukemia; 3.48 µM in the experiment on UACC-257 melanoma.
Take `CC(Br)C(=O)c1ccc2cc(Br)c3ccccc3c2c1` (stereo not drawn): the TGI with ACHN renal was found to be 31.4 µM; in the experiment on CCRF-CEM leukemia, 14.6 µM; in the experiment on HL-60(TB) leukemia, 37.5 µM; in the experiment on HOP-92 NSCLC, 30.8 µM; in the experiment on LOX IMVI melanoma, 20.4 µM; with NCI-H460 lung it was 30.9 µM. Moreover, the TGI in the experiment on OVCAR-3 ovarian amounted to 26.6 µM; in the experiment on SR leukemia, 21.2 µM; in the experiment on UACC-257 melanoma, 31.5 µM; in the experiment on UO-31 renal, 32 µM.
With `COC1OC(C(=O)CP(=O)(OC)OC)C(OCc2ccccc2)C(OCc2ccccc2)C1OCc1ccccc1` (stereo not drawn), the TGI with ACHN renal is 29.4 µM and 29.9 µM; with CCRF-CEM leukemia, > 100 µM and 96.3 µM; in the experiment with COLO 205 colon, 32.7 µM and 33.5 µM; in the experiment with HL-60(TB) leukemia it was 59.4 µM and 47 µM; with HOP-92 NSCLC, 37.1 µM and 34.7 µM; in the experiment with LOX IMVI melanoma it was 33.1 µM and 32.6 µM. The TGI in the experiment with NCI-H460 lung is 31.1 µM and 29.4 µM; in the experiment on OVCAR-3 ovarian, 30.3 µM and 28.7 µM; in the experiment with SR leukemia, 39.1 µM and 65.7 µM; with UACC-257 melanoma, 29.3 µM and 30.1 µM; with UO-31 renal it was 30.9 µM and 23.5 µM.
On to `O=C(COC(c1ccc(F)cc1)c1ccc(F)cc1)N1CCN(CCCc2ccccc2)CC1`, for which the TGI in the experiment on ACHN renal is 13.7 µM; in the experiment with CCRF-CEM leukemia, above 100 µM; with COLO 205 colon, 3.36 µM; in the experiment on HL-60(TB) leukemia, 14.1 µM; in the experiment with HOP-92 NSCLC, 8.02 µM; in the experiment on LOX IMVI melanoma, 16.2 µM. Besides, the TGI in the experiment with NCI-H460 lung was determined as 13.5 µM; in the experiment on OVCAR-3 ovarian, 13.7 µM; in the experiment with SR leukemia, 18.6 µM; with UACC-257 melanoma it was 11.3 µM; with UO-31 renal it was 3.56 µM.
Consider `NC(CCc1ccccc1)(C(=O)O)c1ccccc1` (stereo not drawn), for which the TGI in the experiment with ACHN renal, in the experiment with CCRF-CEM leukemia, in the experiment with HOP-92 NSCLC, with LOX IMVI melanoma, in the experiment on NCI-H460 lung and in the experiment on OVCAR-3 ovarian was above 100 µM throughout. In addition, the TGI with SR leukemia, in the experiment with UACC-257 melanoma and with UO-31 renal was above 100 µM in each case.
Consider `CCOC(=O)C(C)OC(=O)c1ccc(C)cc1` (stereo not drawn), for which the TGI in the experiment with ACHN renal, in the experiment on CCRF-CEM leukemia, in the experiment on COLO 205 colon, in the experiment on HL-60(TB) leukemia, in the experiment on HOP-92 NSCLC and in the experiment with LOX IMVI melanoma was above 100 µM each time. Moreover, the TGI in the experiment with NCI-H460 lung, in the experiment with OVCAR-3 ovarian, in the experiment on SR leukemia, with UACC-257 melanoma and in the experiment with UO-31 renal was above 100 µM throughout.
Consider `Fc1cc(C2=C[C@H](c3ccc4c(c3)OCO4)NC(=S)N2)c(Cl)cc1Cl`, for which the TGI with ACHN renal is above 100 µM; with CCRF-CEM leukemia, above 100 µM; with COLO 205 colon, 50.3 µM; in the experiment with HL-60(TB) leukemia it was 0.23 µM; with HOP-92 NSCLC, above 100 µM; with LOX IMVI melanoma it was above 100 µM. The TGI in the experiment on NCI-H460 lung was above 100 µM; in the experiment on OVCAR-3 ovarian it was above 100 µM; in the experiment on SR leukemia, above 100 µM; with UACC-257 melanoma, 83.6 µM; with UO-31 renal, above 100 µM.
Consider `CC(C)(C)c1ccc(O)c(Br)c1`, for which the TGI in the experiment on ACHN renal, with CCRF-CEM leukemia, with COLO 205 colon, in the experiment on HL-60(TB) leukemia, in the experiment with LOX IMVI melanoma and with NCI-H460 lung was above 100 µM in each case. The TGI with OVCAR-3 ovarian, in the experiment with SR leukemia, with UACC-257 melanoma and in the experiment with UO-31 renal was above 100 µM each time.
With `COc1cccc(/C=N/[N-]C(N)=O)c1[O-].[Cu+2].[OH3+].c1cnc2c(c1)ccc1cccnc12`, the TGI in the experiment on ACHN renal is 40.3 µM; in the experiment with CCRF-CEM leukemia, 66.2 µM; in the experiment on COLO 205 colon, 32.5 µM; in the experiment on HL-60(TB) leukemia, 48.7 µM; in the experiment on HOP-92 NSCLC, 18.2 µM; with LOX IMVI melanoma, 48.2 µM. The TGI is 79.9 µM in the experiment with NCI-H460 lung; 36.1 µM in the experiment on OVCAR-3 ovarian; above 100 µM in the experiment on SR leukemia; 34.5 µM in the experiment with UACC-257 melanoma; 38.2 µM with UO-31 renal. Besides, the GI50 in the experiment on HL-60(TB) leukemia is 20 µM.
As for `Clc1ccc(NCc2nnc(COc3ccc(OCc4nnc(CNc5ccc(Cl)cc5)o4)c(Cl)c3)o2)cc1`, the TGI in the experiment with ACHN renal was above 100 µM; in the experiment with CCRF-CEM leukemia it was 44.8 µM; in the experiment with COLO 205 colon, 25.9 µM; in the experiment on HL-60(TB) leukemia, 27 µM; with HOP-92 NSCLC it was 83.5 µM; in the experiment on LOX IMVI melanoma, above 100 µM. In addition, the TGI in the experiment on NCI-H460 lung was above 100 µM; in the experiment on OVCAR-3 ovarian, 93.5 µM; in the experiment on SR leukemia, 13.6 µM; in the experiment on UACC-257 melanoma, above 100 µM; in the experiment on UO-31 renal it was above 100 µM.
As for `COc1cc(S(=O)(=O)N/N=C/C=C/c2ccccc2)c(OC)cc1NC(C)=O`, the TGI was above 100 µM in the experiment with ACHN renal; above 100 µM in the experiment on CCRF-CEM leukemia; 45.8 µM with COLO 205 colon; above 100 µM with HL-60(TB) leukemia; above 100 µM in the experiment with HOP-92 NSCLC; above 100 µM in the experiment with LOX IMVI melanoma. Further, the TGI in the experiment on OVCAR-3 ovarian, in the experiment on SR leukemia, with UACC-257 melanoma and with UO-31 renal was above 100 µM in each case.
